Measured values taken from US12514249B2, “Oxaloacetate and related compounds as herbicidal agents” (Verdesian Life Sciences U.S., LLC, priority 2020, dated 2026).

System: plants
Experiment: general screening of the herbicidal effect
Assay type: in vivo
Details: 10% w/w; compared with Roundup RTU and Bayer Advanced (10% and 100% Label Rate) and untreated control; FIG. 1
Description: A general screening of the herbicidal effect of the following compounds was carried out: Bayer Advanced® (100% Label Rate), Bayer Advanced® (10% Lable Rate), UTC (=untreated control), Diethyl Oxalacetate (10% w/w), Roundup® RTU (RTU=ready to use) (10% Label Rate) and Roundup® RTU (100% Label Rate).

CCOC(=O)/C=C(\O)C(=O)OCC [Diethyl Oxalacetate]
herbicidal activity: comparable to well-known herbicide products such as Roundup® and Bayer Advanced®
